ChEMBL document CHEMBL5338805, “Discovery of the First Subnanomolar PPARα/δ Dual Agonist for the Treatment of Cholestatic Liver Diseases” (J Med Chem, 2023)
The source made the active and inactive calls. The rule behind the calls is not given here.

Tests used:
[1] = Anti-cholestatic activity in ANIT-induced C57BL/6Nifdc mouse model assessed as decrease in liver 12-OCDCA at 0.03 to 0.1 mg/kg, po upto 42 hrs measured after 48 hrs; assay type: ADME, organism-based; conditions: in vivo, 90 h, dose 0.03-0.1 mg/kg
[2] = Stability in human liver microsome assessed as half life at 1 uM by LC/MS-8050 analysis; assay type: ADME; conditions: liver microsomes
[3] = Anti-cholestatic activity in ANIT-induced C57BL/6Nifdc mouse model assessed as decrease in liver 3-DHCA at 0.03 to 0.1 mg/kg, po upto 42 hrs measured after 48 hrs; assay type: ADME, organism-based; conditions: in vivo, 90 h, dose 0.03-0.1 mg/kg
[4] = target: Peroxisome proliferator-activated receptor delta (Homo sapiens) (UniProt Q03181); conditions: filed as agonist, dose 0.625-10 µM
Description: Binding affinity to PPARdelta LBD (unknown origin) assessed as thermal stability by measuring change in melting temperature by thermal shift assay

[5] = target: Retinoic acid receptor gamma (Homo sapiens) (UniProt P13631); assay: Agonist activity at RARgamma (unknown origin) transfected in african green monkey COS7 cells assessed transactivation incubated at 1 uM for 16 hrs by luciferase assay; assay type: cell-based
[6] = Anti-cholestatic activity in ANIT-induced C57BL/6Nifdc mouse model assessed as decrease in serum alanine aminotransferase at 0.03 to 0.1 mg/kg, po upto 42 hrs measured after 48 hrs; assay type: ADME, organism-based; conditions: in vivo, 90 h, dose 0.03-0.1 mg/kg
[7] = Anti-cholestatic activity in ANIT-induced C57BL/6Nifdc mouse model assessed as decrease in liver TBA at 0.03 to 0.1 mg/kg, po upto 42 hrs measured after 48 hrs; assay type: ADME, organism-based; conditions: in vivo, 90 h, dose 0.03-0.1 mg/kg
[8] = Anti-cholestatic activity in ANIT-induced C57BL/6Nifdc mouse model assessed as decrease in liver DHCA at 0.03 to 0.1 mg/kg, po upto 42 hrs measured after 48 hrs; assay type: ADME, organism-based; conditions: in vivo, 90 h, dose 0.03-0.1 mg/kg
[9] = target: Peroxisome proliferator-activated receptor alpha (Homo sapiens) (UniProt Q07869); assay: Binding affinity to PPARalpha LBD (unknown origin) assessed as thermal stability by measuring change in melting temperature by thermal shift assay; conditions: filed as agonist, dose 0.625-10 µM
[10] = Anti-cholestatic activity in ANIT-induced C57BL/6Nifdc mouse model assessed as decrease in liver GHCA at 0.03 to 0.1 mg/kg, po upto 42 hrs measured after 48 hrs; assay type: ADME, organism-based; conditions: in vivo, 90 h, dose 0.03-0.1 mg/kg
[11] = Anti-cholestatic activity in ANIT-induced C57BL/6Nifdc mouse model assessed as decrease in liver GCA at 0.03 to 0.1 mg/kg, po upto 42 hrs measured after 48 hrs; assay type: ADME, organism-based; conditions: in vivo, 90 h, dose 0.03-0.1 mg/kg
[12] = Acute toxicity in mouse assessed as mortality administered orally for 14 days; conditions: in vivo, po, 336 h, time 14 day
[13] = target: Vitamin D3 receptor (Homo sapiens) (UniProt P11473); assay: Agonist activity at VDR (unknown origin) transfected in african green monkey COS7 cells assessed transactivation incubated at 1 uM for 16 hrs by luciferase assay; assay type: cell-based
[14] = target: Retinoic acid receptor RXR-beta (Homo sapiens) (UniProt P28702); assay: Agonist activity at RXRbeta (unknown origin) transfected in african green monkey COS7 cells assessed transactivation incubated at 1 uM for 16 hrs by luciferase assay; assay type: cell-based
[15] = Down-streaming of Oatp1 gene expression in C57BL/6JNifdc mouse liver assessed as hepatic resorption of bile acid administered at 0.03 mg/kg, po for 3 days measured after 6 hrs of last administration by real-time PCR analysis; assay type: ADME, organism-based; conditions: in vivo, 78 h
[16] = Anti-cholestatic activity in ANIT-induced C57BL/6Nifdc mouse model assessed as decrease in phosphorylated p65 level at 0.03 to 0.1 mg/kg, po upto 42 hrs measured after 48 hrs by Western blot analysis; assay type: ADME, organism-based; conditions: in vivo, 90 h, dose 0.03-0.1 mg/kg
[17] = Anti-cholestatic activity in ANIT-induced C57BL/6Nifdc mouse model assessed as decrease in liver CA at 0.03 to 0.1 mg/kg, po upto 42 hrs measured after 48 hrs; assay type: ADME, organism-based; conditions: in vivo, 90 h, dose 0.03-0.1 mg/kg
[18] = Upregulation of Mrp4 gene expression in C57BL/6JNifdc mouse liver assessed as increased efflux of bile acid administered at 0.03 to 0.1 mg/kg, po for 3 days measured after 6 hrs of last administration by real-time PCR analysis; assay type: ADME, organism-based; conditions: in vivo, 78 h, dose 0.03-0.1 mg/kg, time 3.25 day
[19] = Down-streaming of Oatp1 gene expression in C57BL/6JNifdc mouse liver assessed as hepatic resorption of bile acid administered at 0.03 to 0.1 mg/kg, po for 3 days measured after 6 hrs of last administration by real-time PCR analysis; assay type: ADME, organism-based; conditions: in vivo, 78 h, dose 0.03-0.1 mg/kg, time 3.25 day
[20] = target: Retinoic acid receptor RXR-gamma (Homo sapiens) (UniProt P48443); assay: Agonist activity at RXRgamma (unknown origin) transfected in african green monkey COS7 cells assessed transactivation incubated at 1 uM for 16 hrs by luciferase assay; assay type: cell-based
[21] = Anti-fibrosis activity in Ccl4-induced C57BL/6Nifdc mouse model assessed as reversal of increased alpha-SMA administered orally for 3 weeks by Western blot analysis; assay type: ADME; conditions: in vivo, po, 504 h, dose 0.03-0.1 mg/kg
[22] = Anti-fibrosis activity in Ccl4-induced C57BL/6Nifdc mouse model assessed as decrease in hydroxyproline in liver administered orally for 3 weeks; assay type: ADME; conditions: in vivo, po, 504 h, dose 0.03-0.1 mg/kg
[23] = Anti-cholestatic activity in ANIT-induced C57BL/6Nifdc mouse model assessed as decrease in liver alkaline phosphatase at 0.03 to 0.1 mg/kg, po upto 42 hrs measured after 48 hrs; assay type: ADME, organism-based; conditions: in vivo, 90 h, dose 0.03-0.1 mg/kg
[24] = In vivo upregulation of PPAR delta in C57BL/6JNifdc mouse liver administered orally for 3 days measured after 6 hrs of last administration by real-time PCR analysis; assay type: ADME, organism-based; conditions: po, 78 h, dose 0.03-0.1 mg/kg
[25] = Stability in human liver microsome assessed as intrinsic clearance at 1 uM for 0 to 45 mins by LC/MS-8050 analysis; assay type: ADME; conditions: liver microsomes, time 0-45 min, read-out: CLH
[26] = Anti-cholestatic activity in ANIT-induced C57BL/6Nifdc mouse model assessed as decrease in liver TUDCA at 0.03 to 0.1 mg/kg, po upto 42 hrs measured after 48 hrs; assay type: ADME, organism-based; conditions: in vivo, 90 h, dose 0.03-0.1 mg/kg
[27] = target: Nuclear receptor subfamily 1 group I member 2 (Homo sapiens, UniProt O75469); assay: Agonist activity at PXR (unknown origin) transfected in african green monkey COS7 cells assessed transactivation incubated at 1 uM for 16 hrs by luciferase assay; assay type: cell-based; conditions: cos7, 16 h
[28] = target: Oxysterols receptor LXR-beta (Homo sapiens) (UniProt P55055); assay: Agonist activity at LXRbeta (unknown origin) transfected in african green monkey COS7 cells assessed transactivation incubated at 1 uM for 16 hrs by luciferase assay; assay type: cell-based
[29] = target: Nuclear receptor ROR-beta (Homo sapiens) (UniProt Q92753); assay: Agonist activity at RORbeta (unknown origin) transfected in african green monkey COS7 cells assessed transactivation incubated at 1 uM for 16 hrs by luciferase assay; assay type: cell-based
[30] = Anti-cholestatic activity in ANIT-induced C57BL/6Nifdc mouse model assessed as decrease in serum TBA at 0.03 to 0.1 mg/kg, po upto 42 hrs measured after 48 hrs; assay type: ADME, organism-based; conditions: in vivo, 90 h, dose 0.03-0.1 mg/kg
[31] = Upregulation of Mrp3 gene expression in C57BL/6JNifdc mouse liver assessed as increased efflux of bile acid administered at 0.03 to 0.1 mg/kg, po for 3 days measured after 6 hrs of last administration by real-time PCR analysis; assay type: ADME, organism-based; conditions: in vivo, 78 h, dose 0.03-0.1 mg/kg, time 3.25 day

Nuclear receptor ROR-beta (Homo sapiens), sequence (Q92753 whole entry): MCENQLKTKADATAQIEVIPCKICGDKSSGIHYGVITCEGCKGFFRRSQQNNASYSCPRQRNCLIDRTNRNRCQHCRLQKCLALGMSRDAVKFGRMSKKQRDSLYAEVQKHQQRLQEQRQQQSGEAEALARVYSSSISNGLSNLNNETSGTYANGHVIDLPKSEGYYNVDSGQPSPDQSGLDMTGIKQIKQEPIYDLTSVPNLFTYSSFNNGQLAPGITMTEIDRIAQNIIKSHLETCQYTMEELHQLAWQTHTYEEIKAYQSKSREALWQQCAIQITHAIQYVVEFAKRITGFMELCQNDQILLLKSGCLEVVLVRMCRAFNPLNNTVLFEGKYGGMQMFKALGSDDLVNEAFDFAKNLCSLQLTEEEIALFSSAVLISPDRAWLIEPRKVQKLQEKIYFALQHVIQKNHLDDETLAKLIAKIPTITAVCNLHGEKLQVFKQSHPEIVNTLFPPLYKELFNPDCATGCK
Peroxisome proliferator-activated receptor alpha (Homo sapiens), sequence (Q07869 whole entry, the tested form may be a part): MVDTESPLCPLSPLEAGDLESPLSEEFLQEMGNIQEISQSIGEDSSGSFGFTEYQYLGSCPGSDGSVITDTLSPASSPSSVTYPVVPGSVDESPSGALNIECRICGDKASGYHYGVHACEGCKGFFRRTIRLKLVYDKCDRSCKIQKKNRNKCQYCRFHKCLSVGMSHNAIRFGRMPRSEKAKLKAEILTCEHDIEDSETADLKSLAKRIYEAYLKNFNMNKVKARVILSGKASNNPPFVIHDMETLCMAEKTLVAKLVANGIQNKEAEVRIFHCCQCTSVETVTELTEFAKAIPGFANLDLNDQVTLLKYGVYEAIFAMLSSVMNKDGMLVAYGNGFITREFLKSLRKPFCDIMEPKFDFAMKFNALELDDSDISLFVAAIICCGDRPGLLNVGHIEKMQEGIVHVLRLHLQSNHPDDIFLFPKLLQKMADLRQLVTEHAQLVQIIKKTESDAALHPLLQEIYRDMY
Retinoic acid receptor RXR-beta (Homo sapiens), sequence (P28702 whole entry): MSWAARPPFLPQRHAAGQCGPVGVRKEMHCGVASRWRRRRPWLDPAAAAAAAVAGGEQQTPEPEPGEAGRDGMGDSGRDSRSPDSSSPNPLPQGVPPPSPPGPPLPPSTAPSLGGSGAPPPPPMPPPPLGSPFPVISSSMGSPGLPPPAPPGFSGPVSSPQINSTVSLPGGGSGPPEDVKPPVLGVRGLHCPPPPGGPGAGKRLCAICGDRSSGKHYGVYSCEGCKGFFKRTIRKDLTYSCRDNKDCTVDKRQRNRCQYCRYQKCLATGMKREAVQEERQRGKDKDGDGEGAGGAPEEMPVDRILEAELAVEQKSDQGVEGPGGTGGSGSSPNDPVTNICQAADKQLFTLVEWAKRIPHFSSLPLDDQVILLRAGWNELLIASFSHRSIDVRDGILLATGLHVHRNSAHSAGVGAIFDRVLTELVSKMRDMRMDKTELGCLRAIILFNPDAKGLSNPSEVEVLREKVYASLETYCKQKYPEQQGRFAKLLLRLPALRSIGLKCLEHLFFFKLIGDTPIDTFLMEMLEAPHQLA
Retinoic acid receptor gamma (Homo sapiens), sequence (P13631 whole entry): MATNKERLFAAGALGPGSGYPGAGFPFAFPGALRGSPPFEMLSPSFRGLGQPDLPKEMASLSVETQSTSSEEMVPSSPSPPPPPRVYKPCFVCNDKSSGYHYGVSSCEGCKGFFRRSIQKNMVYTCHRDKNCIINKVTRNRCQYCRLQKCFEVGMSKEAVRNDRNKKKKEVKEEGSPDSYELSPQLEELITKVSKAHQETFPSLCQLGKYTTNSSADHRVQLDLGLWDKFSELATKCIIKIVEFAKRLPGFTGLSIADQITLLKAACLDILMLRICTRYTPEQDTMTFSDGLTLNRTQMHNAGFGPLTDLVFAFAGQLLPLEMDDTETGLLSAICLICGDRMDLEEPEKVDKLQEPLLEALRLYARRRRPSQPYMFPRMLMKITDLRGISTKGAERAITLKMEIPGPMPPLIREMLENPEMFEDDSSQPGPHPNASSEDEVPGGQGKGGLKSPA
Nuclear receptor subfamily 1 group I member 2, sequence (O75469 whole entry): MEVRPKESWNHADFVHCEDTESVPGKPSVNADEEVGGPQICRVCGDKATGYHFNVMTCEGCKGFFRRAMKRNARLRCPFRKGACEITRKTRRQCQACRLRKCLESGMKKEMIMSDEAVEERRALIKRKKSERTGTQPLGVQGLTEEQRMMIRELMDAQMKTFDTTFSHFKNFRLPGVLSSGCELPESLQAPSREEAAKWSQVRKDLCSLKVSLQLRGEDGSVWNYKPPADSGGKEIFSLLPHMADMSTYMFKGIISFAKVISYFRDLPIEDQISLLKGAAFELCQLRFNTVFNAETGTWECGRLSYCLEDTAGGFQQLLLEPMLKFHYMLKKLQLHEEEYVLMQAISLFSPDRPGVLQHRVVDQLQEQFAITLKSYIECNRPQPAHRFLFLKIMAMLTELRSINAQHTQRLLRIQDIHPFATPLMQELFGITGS
Vitamin D3 receptor (Homo sapiens), sequence (P11473 whole entry): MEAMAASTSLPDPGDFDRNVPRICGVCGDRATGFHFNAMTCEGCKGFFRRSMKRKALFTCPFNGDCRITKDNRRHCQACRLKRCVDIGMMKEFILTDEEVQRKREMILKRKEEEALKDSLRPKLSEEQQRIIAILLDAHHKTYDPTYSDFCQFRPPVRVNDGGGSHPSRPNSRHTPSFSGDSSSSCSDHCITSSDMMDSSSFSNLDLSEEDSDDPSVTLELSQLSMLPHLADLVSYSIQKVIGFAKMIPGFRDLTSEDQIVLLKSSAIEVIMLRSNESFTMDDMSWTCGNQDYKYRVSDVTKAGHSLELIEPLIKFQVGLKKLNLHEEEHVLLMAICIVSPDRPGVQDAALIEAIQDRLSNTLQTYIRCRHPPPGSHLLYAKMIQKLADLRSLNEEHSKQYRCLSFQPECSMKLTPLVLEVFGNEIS
Peroxisome proliferator-activated receptor delta (Homo sapiens), sequence (Q03181 whole entry): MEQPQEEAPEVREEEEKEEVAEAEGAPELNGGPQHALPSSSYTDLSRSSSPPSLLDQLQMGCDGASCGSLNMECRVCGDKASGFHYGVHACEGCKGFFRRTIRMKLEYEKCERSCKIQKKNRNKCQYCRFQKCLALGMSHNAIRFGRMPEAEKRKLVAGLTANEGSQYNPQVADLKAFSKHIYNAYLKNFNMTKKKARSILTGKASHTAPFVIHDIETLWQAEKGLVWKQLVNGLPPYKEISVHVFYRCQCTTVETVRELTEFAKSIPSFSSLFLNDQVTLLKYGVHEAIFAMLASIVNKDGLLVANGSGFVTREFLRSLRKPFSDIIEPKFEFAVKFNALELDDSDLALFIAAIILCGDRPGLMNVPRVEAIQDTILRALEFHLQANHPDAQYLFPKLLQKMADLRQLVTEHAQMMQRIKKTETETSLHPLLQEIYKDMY
Oxysterols receptor LXR-beta (Homo sapiens), sequence (P55055 whole entry): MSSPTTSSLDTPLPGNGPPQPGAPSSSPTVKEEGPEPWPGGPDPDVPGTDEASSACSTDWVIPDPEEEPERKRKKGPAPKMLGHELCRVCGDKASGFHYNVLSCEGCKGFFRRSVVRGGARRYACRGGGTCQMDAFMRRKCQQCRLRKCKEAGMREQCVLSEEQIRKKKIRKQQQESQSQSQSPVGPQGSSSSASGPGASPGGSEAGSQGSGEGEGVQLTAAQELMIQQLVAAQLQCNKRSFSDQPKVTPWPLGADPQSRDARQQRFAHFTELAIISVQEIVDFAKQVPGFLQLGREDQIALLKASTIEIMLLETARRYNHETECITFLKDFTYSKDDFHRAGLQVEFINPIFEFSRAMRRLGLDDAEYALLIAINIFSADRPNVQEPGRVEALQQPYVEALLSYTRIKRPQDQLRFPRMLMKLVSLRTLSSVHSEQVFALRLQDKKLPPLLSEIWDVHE
Retinoic acid receptor RXR-gamma (Homo sapiens), sequence (P48443 whole entry): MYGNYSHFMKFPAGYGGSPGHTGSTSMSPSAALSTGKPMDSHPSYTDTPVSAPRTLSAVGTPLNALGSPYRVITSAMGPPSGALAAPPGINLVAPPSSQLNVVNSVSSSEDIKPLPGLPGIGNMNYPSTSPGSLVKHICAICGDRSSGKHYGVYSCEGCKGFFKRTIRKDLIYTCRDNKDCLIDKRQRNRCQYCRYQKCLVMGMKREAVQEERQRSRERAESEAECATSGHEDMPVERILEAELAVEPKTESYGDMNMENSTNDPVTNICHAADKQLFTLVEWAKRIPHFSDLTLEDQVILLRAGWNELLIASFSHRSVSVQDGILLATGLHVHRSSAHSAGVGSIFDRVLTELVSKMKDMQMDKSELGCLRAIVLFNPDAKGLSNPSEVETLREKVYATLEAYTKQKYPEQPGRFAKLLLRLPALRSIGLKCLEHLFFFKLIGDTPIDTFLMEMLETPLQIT

Cc1cc(CN2C(=O)CN(c3ccc(C(F)(F)F)cc3)C2=O)cc(C)c1OC(C)(C)C(=O)O
Activity [1]: Active
half-life at 1 µM [2]: > 2 h
Activity [3]: Active
deltaTm [4]: Dose-Dependent Effect
Activity [5]: inactive
Activity [6]: Active
Activity [7]: Active
Activity [8]: Active
deltaTm [9]: Dose-Dependent Effect
Activity [10]: Active
Activity [11]: Active
Activity [12]: Non-Toxic
Activity [13]: inactive
Activity [14]: inactive
Activity [15]: Active
Activity [16]: Active
Activity [17]: Active
Activity [18]: Active
Activity [19]: Active
Activity [20]: inactive
Activity [21]: Dose-Dependent Effect
Activity [22]: Dose-Dependent Effect
Activity [23]: Active
Activity [24]: Dose-Dependent Effect
CLint scaled at 1 µM [25]: 6.24 mL/min/kg
Activity [26]: Active
Activity [27]: Not Active
Activity [28]: inactive
Activity [29]: inactive
Activity [30]: Active
Activity [31]: Active
